Data as given in patent US11267811B2, “Small molecule inhibitors of galectin-3” (BRISTOL-MYERS SQUIBB COMPANY, priority 2017, dated 2022).
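Note: compounds preincubated 30 min with hGal-3, then 1 h with B-ASF, detection via terbium anti-His antibody and streptavidin d2. Control with B-ASF counts as full signal, omitting B-ASF as background.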

What follows are compounds tested against His-tagged recombinant human Gal-3 (hGal-3) (Homo sapiens (Human), UniProt P17931) (assay: Gal-3 HTRF assay (His-tagged hGal-3 binding to B-ASF)). Conditions: HTRF, hGal-3 15 nM, B-ASF 15 nM; read-out: hGal-3 IC50.
Sequence of His-tagged recombinant human Gal-3 (hGal-3) (P17931 whole entry): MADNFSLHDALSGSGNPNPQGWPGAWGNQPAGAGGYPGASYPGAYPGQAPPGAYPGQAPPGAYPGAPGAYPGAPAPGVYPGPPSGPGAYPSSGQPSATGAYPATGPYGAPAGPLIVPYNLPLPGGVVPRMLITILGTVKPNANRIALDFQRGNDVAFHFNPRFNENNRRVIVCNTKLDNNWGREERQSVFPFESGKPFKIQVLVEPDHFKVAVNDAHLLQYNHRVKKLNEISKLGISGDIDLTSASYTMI
`Cc1nc2ccc(-n3ncnc3[C@@H]3O[C@H](CO)[C@H](O)[C@H](n4cc(C(=O)NCc5cccc(F)c5)nn4)[C@H]3O)cc2s1` [Example 200] was tested, and the IC50 was 860 nM.
Work on `Cc1nc2ccc(-n3ncnc3[C@@H]3O[C@H](CO)[C@H](O)[C@H](n4cc(-c5ccc(C6CC6)c(F)c5)nn4)[C@H]3O)cc2s1` [Example 201, (2R,3R,4R,5R,6S)-4-(4-(4-cyclopropyl-3-fluorophenyl)-1H-1,2,3-triazol-1-yl)-2-(hydroxymethyl)-6-(1-(2-methylbenzo[d]thiazol-6-yl)-1H-1,2,4-triazol-5-yl)tetrahydro-2H-pyran-3,5-diol] yielded an IC50 of 350 nM.
Compound `Cc1nc2ccc(-n3ncnc3[C@@H]3O[C@H](CO)[C@H](O)[C@H](n4cc(-c5cc(F)c(Cl)c(Cl)c5)nn4)[C@H]3O)cc2s1` [Example 221, (2R,3R,4R,5R,6S)-4-(4-(3,4-dichloro-5-fluorophenyl)-1H-1,2,3-triazol-1-yl)-2-(hydroxymethyl)-6-(1-(2-methylbenzo[d]thiazol-6-yl)-1H-1,2,4-triazol-5-yl)tetrahydro-2H-pyran-3,5-diol] has an IC50 of 50 nM.
With `Cc1nc2ccc(-n3ncnc3[C@@H]3O[C@H](CO)[C@H](O)[C@H](n4cc(-c5cc(F)c(Cl)cc5F)nn4)[C@H]3O)cc2s1` [Example 222] the IC50 was 240 nM.
`COc1ccc(-c2cn([C@H]3[C@@H](O)[C@@H](CO)O[C@@H](c4ncnn4-c4ccc5nc(C)sc5c4)[C@@H]3O)nn2)cc1F` [Example 223] gave an IC50 of 200 nM.
In the case of `Cc1nc2ccc(-n3ncnc3[C@@H]3O[C@H](CO)[C@H](O)[C@H](n4cc(-c5ccc(F)cc5)nn4)[C@H]3O)cc2s1` [Example 224, (2R,3R,4R,5R,6S)-4-(4-(4-fluorophenyl)-1H-1,2,3-triazol-1-yl)-2-(hydroxymethyl)-6-(1-(2-methylbenzo[d]thiazol-6-yl)-1H-1,2,4-triazol-5-yl)tetrahydro-2H-pyran-3,5-diol], the IC50 is reported as 330 nM.
Work on `Cc1nc2ccc(-n3ncnc3[C@@H]3O[C@H](CO)[C@H](O)[C@H](n4cc(-c5cc(F)c(N6CCC(O)CC6)c(F)c5)nn4)[C@H]3O)cc2s1` [Example 241, (2R,3R,4R,5R,6S)-4-(4-(3,5-difluoro-4-(4-hydroxypiperidin-1-yl)phenyl)-1H-1,2,3-triazol-1-yl)-2-(hydroxymethyl)-6-(1-(2-methylbenzo[d]thiazol-6-yl)-1H-1,2,4-triazol-5-yl)tetrahydro-2H-pyran-3,5-diol] yielded an IC50 of 130 nM.
Work on `Cc1nc2ccc(-n3ncnc3[C@@H]3O[C@H](CO)[C@H](O)[C@H](n4cc(-c5cc(F)c(N6CC(O)C6)c(F)c5)nn4)[C@H]3O)cc2s1` [Example 242] yielded an IC50 of 60 nM.
Work on `Cc1nc2ccc(-n3ncnc3[C@@H]3O[C@H](CO)[C@H](O)[C@H](n4cc(-c5cc(F)c(N6CCOCC6)c(F)c5)nn4)[C@H]3O)cc2s1` [Example 243] yielded an IC50 of 80 nM.
Work on `Cc1nc([C@@H]2O[C@H](CO)[C@H](O)[C@H](n3cc(-c4ccc(Cl)c(F)c4)nn3)[C@H]2O)n(-c2cccc(Cl)c2)n1` [Example 244, (2S,3R,4R,5R,6R)-4-(4-(4-chloro-3-fluorophenyl)-1H-1,2,3-triazol-1-yl)-2-(1-(3-chlorophenyl)-3-methyl-1H-1,2,4-triazol-5-yl)-6-(hydroxymethyl)tetrahydro-2H-pyran-3,5-diol] yielded an IC50 of 80 nM.

Same assay, conditions: read-out: hGal3 IC50
`Cc1nc2ccc(-n3ncnc3[C@@H]3O[C@H](CO)[C@H](O)[C@H](n4cc(-c5ccc(N)c(F)c5)nn4)[C@H]3O)cc2s1` [Example 202] gave an IC50 of 440 nM.
`Cc1nc2ccc(-n3ncnc3[C@@H]3O[C@H](CO)[C@H](O)[C@H](n4cc(-c5ccc(NS(C)(=O)=O)c(F)c5)nn4)[C@H]3O)cc2s1` [Example 203] showed an IC50 of 2120 nM.
`CC(=O)Nc1ccc(-c2cn([C@H]3[C@@H](O)[C@@H](CO)O[C@@H](c4ncnn4-c4ccc5nc(C)sc5c4)[C@@H]3O)nn2)cc1F` [Example 204] was tested, and the IC50 was 5000 nM.
`COC(=O)Nc1ccc(-c2cn([C@H]3[C@@H](O)[C@@H](CO)O[C@@H](c4ncnn4-c4ccc5nc(C)sc5c4)[C@@H]3O)nn2)cc1F` [Example 205] showed an IC50 of 1110 nM.
For `Cc1nc2ccc(-n3ncnc3[C@@H]3O[C@H](CO)[C@H](O)[C@H](n4cc(-c5ccc(N(C)C)c(F)c5)nn4)[C@H]3O)cc2s1` [Example 206], the IC50 was 1540 nM.
`CNc1ccc(-c2cn([C@H]3[C@@H](O)[C@@H](CO)O[C@@H](c4ncnn4-c4ccc5nc(C)sc5c4)[C@@H]3O)nn2)cc1F` [Example 207] gave an IC50 of 740 nM.
`Cc1nc2ccc(-n3ncnc3[C@@H]3O[C@H](CO)[C@H](O)[C@H](n4cc(-c5ccc(N(C)S(C)(=O)=O)c(F)c5)nn4)[C@H]3O)cc2s1` [Example 208] was tested, and the IC50 was 3820 nM.
In the case of `Cc1nc2ccc(-n3ncnc3[C@@H]3O[C@H](CO)[C@H](O)[C@H](n4cc(-c5ccc(C(F)(F)F)c(F)c5)nn4)[C@H]3O)cc2s1` [Example 209], the IC50 is reported as 80 nM.
For `Cc1nc2ccc(-n3ncnc3[C@@H]3O[C@H](CO)[C@H](O)[C@H](n4cc(-c5cc(F)c(Cl)c(F)c5)nn4)[C@H]3O)cc2s1` [Example 210], the IC50 was 40 nM.
With `Cc1nc2ccc(-n3ncnc3[C@@H]3O[C@H](CO)[C@H](O)[C@H](n4cc(-c5ccc(Cl)c(Cl)c5)nn4)[C@H]3O)cc2s1` [Example 211] the IC50 was 60 nM.
`Cc1nc2ccc(-n3ncnc3[C@@H]3O[C@H](CO)[C@H](O)[C@H](n4cc(-c5ccc(C)c(F)c5)nn4)[C@H]3O)cc2s1` [Example 212] showed an IC50 of 60 nM.
In the case of `Cc1nc2ccc(-n3ncnc3[C@@H]3O[C@H](CO)[C@H](O)[C@H](n4cc(-c5cccc(F)c5)nn4)[C@H]3O)cc2s1` [Example 213], the IC50 is reported as 120 nM.
With `Cc1nc2ccc(-n3ncnc3[C@@H]3O[C@H](CO)[C@H](O)[C@H](n4cc(-c5ccccc5)nn4)[C@H]3O)cc2s1` [Example 214] the IC50 was 600 nM.
`Cc1nc2ccc(-n3ncnc3[C@@H]3O[C@H](CO)[C@H](O)[C@H](n4cc(-c5cc(F)cc(F)c5)nn4)[C@H]3O)cc2s1` [Example 215] gave an IC50 of 140 nM.
`Cc1nc2ccc(-n3ncnc3[C@@H]3O[C@H](CO)[C@H](O)[C@H](n4cc(-c5ccc(Br)c(F)c5)nn4)[C@H]3O)cc2s1` [Example 216] gave an IC50 of 50 nM.
For `Cc1nc2ccc(-n3ncnc3[C@@H]3O[C@H](CO)[C@H](O)[C@H](n4cc(-c5ccc(Cl)c(F)c5)nn4)[C@H]3O)cc2s1` [Example 217], the IC50 was 70 nM.
For `Cc1nc2ccc(-n3ncnc3[C@@H]3O[C@H](CO)[C@H](O)[C@H](n4cc(-c5cc(N)c(F)c(F)c5)nn4)[C@H]3O)cc2s1` [Example 218], the IC50 was 20 nM.
For `CC(=O)Nc1cc(-c2cn([C@H]3[C@@H](O)[C@@H](CO)O[C@@H](c4ncnn4-c4ccc5nc(C)sc5c4)[C@@H]3O)nn2)cc(F)c1F` [Example 219], the IC50 was 70 nM.
`CCOC(=O)Nc1cc(-c2cn([C@H]3[C@@H](O)[C@@H](CO)O[C@@H](c4ncnn4-c4ccc5nc(C)sc5c4)[C@@H]3O)nn2)cc(F)c1F` [Example 220] showed an IC50 of 70 nM.
`Cc1nc2ccc(-n3ncnc3[C@@H]3O[C@H](CO)[C@H](O)[C@H](n4cc(-c5ccc(Br)cc5)nn4)[C@H]3O)cc2s1` [Example 225] showed an IC50 of 210 nM.
For `Cc1nc2ccc(-n3ncnc3[C@@H]3O[C@H](CO)[C@H](O)[C@H](n4cc(-c5cc(F)c(Br)c(F)c5)nn4)[C@H]3O)cc2s1` [Example 226], the IC50 was 70 nM.
Work on `Cc1nc2cc(-c3cn([C@H]4[C@@H](O)[C@@H](CO)O[C@@H](c5ncnn5-c5ccc6nc(C)sc6c5)[C@@H]4O)nn3)cc(F)c2o1` [Example 227] yielded an IC50 of 250 nM.
`Cc1nc2ccc(-n3ncnc3[C@@H]3O[C@H](CO)[C@H](O)[C@H](n4cc(-c5cc(F)cc(C(F)(F)F)c5)nn4)[C@H]3O)cc2s1` [Example 228] was tested, and the IC50 was 420 nM.
`Cc1nc2ccc(-n3ncnc3[C@@H]3O[C@H](CO)[C@H](O)[C@H](n4cc(-c5ccc(OC(F)(F)F)c(F)c5)nn4)[C@H]3O)cc2s1` [Example 229] showed an IC50 of 980 nM.
For `Cc1nc2ccc(-n3ncnc3[C@@H]3O[C@H](CO)[C@H](O)[C@H](n4cc(-c5ccc(C#N)c(F)c5)nn4)[C@H]3O)cc2s1` [Example 230], the IC50 was 450 nM.
Work on `Cc1nc2ccc(-n3ncnc3[C@@H]3O[C@H](CO)[C@H](O)[C@H](n4cc(-c5ccc(CC#N)c(F)c5)nn4)[C@H]3O)cc2s1` [Example 231] yielded an IC50 of 390 nM.
`COc1cc(-c2cn([C@H]3[C@@H](O)[C@@H](CO)O[C@@H](c4ncnn4-c4ccc5nc(C)sc5c4)[C@@H]3O)nn2)cc(F)c1F` [Example 232] showed an IC50 of 40 nM.
Compound `COc1cc(F)c(F)cc1-c1cn([C@H]2[C@@H](O)[C@@H](CO)O[C@@H](c3ncnn3-c3ccc4nc(C)sc4c3)[C@@H]2O)nn1` [Example 233] has an IC50 of 240 nM.
With `Cc1nc2ccc(-n3ncnc3[C@@H]3O[C@H](CO)[C@H](O)[C@H](n4cc(-c5cc(F)c(C#N)cc5C)nn4)[C@H]3O)cc2s1` [Example 235] the IC50 was 390 nM.
`Cc1nc2ccc(-n3ncnc3[C@@H]3O[C@H](CO)[C@H](O)[C@H](n4cc(-c5cc(C)c(C#N)c(F)c5)nn4)[C@H]3O)cc2s1` [Example 236] showed an IC50 of 240 nM.
In the case of `Cc1nc2ccc(-n3ncnc3[C@@H]3O[C@H](CO)[C@H](O)[C@H](n4cc(-c5ccc(Cl)cc5)nn4)[C@H]3O)cc2s1` [Example 237], the IC50 is reported as 210 nM.
Compound `Cc1nc2ccc(-n3ncnc3[C@@H]3O[C@H](CO)[C@H](O)[C@H](n4cc(-c5cc(F)cc(Cl)c5)nn4)[C@H]3O)cc2s1` [Example 240] has an IC50 of 160 nM.
`Cc1nc([C@@H]2O[C@H](CO)[C@H](O)[C@H](n3cc(-c4ccc(Cl)c(F)c4)nn3)[C@H]2O)n(-c2cc(Cl)ccc2Cl)n1` [Example 246] gave an IC50 of 30 nM.
Compound `Cc1nc([C@@H]2O[C@H](CO)[C@H](O)[C@H](n3cc(-c4ccc(Cl)c(F)c4)nn3)[C@H]2O)n(-c2ccccc2)n1` [Example 247] has an IC50 of 450 nM.
Work on `Cc1nc([C@@H]2O[C@H](CO)[C@H](O)[C@H](n3cc(-c4ccc(Cl)c(F)c4)nn3)[C@H]2O)n(-c2cc(Cl)ccc2F)n1` [Example 249] yielded an IC50 of 90 nM.
`COc1ccc(Cl)cc1-n1nc(C)nc1[C@@H]1O[C@H](CO)[C@H](O)[C@H](n2cc(-c3ccc(Cl)c(F)c3)nn2)[C@H]1O` [Example 251] showed an IC50 of 80 nM.
`Cc1nc([C@@H]2O[C@H](CO)[C@H](O)[C@H](n3cc(-c4ccc(Cl)c(F)c4)nn3)[C@H]2O)n(-c2ccc(Cl)c(Cl)c2)n1` [Example 252] showed an IC50 of 110 nM.
Work on `Cc1nc([C@@H]2O[C@H](CO)[C@H](O)[C@H](n3cc(-c4ccc(Cl)c(F)c4)nn3)[C@H]2O)n(-c2ccc3ncccc3c2)n1` [Example 253] yielded an IC50 of 80 nM.
